Experimental data taken from publication PMC10862865 (bioRxiv, 2024).

Molecular target: tau4RD (Homo sapiens, UniProt P10636)
Test: Unseeded heparin-induced tau4RD aggregation, thioflavin T fluorescence
Assay type: biochemical
Details: 1:2 protein:compound molar ratio; ThT fluorescence

Sequence of tau4RD (P10636 561-685 limits assumed): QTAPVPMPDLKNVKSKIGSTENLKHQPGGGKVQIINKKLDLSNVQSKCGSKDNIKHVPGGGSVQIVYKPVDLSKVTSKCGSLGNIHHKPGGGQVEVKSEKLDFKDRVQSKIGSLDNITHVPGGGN

Structure (SMILES): O=C1c2ccccc2-n2c1nc1ccccc1c2=O [compound 1, tryptanthrin]
- Inhibition of heparin-induced tau4RD aggregation in initial screen (in words): among the most potent inhibitors
